For eight compounds, IC50 results are on record in patent US9957264B2 (Merck Sharp & Dohme Corp., priority 2013, dated 2018).

The target in experiment [1] is JAK2 (recombinant purified GST-tagged catalytic domain) (Homo sapiens (Human), UniProt O60674). As to the kind of experiment: Jak Biochemical HTRF Assay (JAK2). The following applies: [ATP] 8.5 μM. A general note: In TR-FRET formats the signal depends on donor and acceptor labels being close together.
The target of experiment [2] is JAK1 (recombinant purified GST-tagged catalytic domain) (Homo sapiens (Human), UniProt P23458). As to the kind of experiment: Jak Biochemical HTRF Assay (JAK1). As to conditions: [ATP] 31.8 μM. The method in brief: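 Phosphorylation of a common biotinylated peptide by each catalytic domain is measured by HTRF. The ATP-started reaction runs 120 min at room temperature before EDTA quench and detection.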
Sequence of JAK1 (recombinant purified GST-tagged catalytic domain) (P23458 875-1153): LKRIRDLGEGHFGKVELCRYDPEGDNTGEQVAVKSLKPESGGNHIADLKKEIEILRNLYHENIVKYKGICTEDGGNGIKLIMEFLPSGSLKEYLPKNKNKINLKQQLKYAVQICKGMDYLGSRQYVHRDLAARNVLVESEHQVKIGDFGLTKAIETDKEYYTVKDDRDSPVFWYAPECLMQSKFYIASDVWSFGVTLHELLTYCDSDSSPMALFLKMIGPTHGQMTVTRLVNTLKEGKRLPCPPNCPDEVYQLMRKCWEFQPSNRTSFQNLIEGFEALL

Sequence of JAK2 (recombinant purified GST-tagged catalytic domain) (O60674 849-1124): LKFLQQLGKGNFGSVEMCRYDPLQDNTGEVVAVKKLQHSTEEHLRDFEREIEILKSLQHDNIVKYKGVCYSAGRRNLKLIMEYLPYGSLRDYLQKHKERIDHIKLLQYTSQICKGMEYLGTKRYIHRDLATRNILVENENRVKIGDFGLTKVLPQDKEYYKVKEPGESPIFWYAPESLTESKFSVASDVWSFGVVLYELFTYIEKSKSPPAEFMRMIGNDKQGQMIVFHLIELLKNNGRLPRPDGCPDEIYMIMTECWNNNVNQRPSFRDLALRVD

Turning to `Cc1cc(Nc2nn(C3(CC#N)CCN(c4cc(C(F)(F)F)ccn4)CC3)c3cc[nH]c(=O)c23)ccc1C(=O)N1CCC(F)(F)CC1` [Example 16-4, 2-(4-(3-(4-(4,4-difluoropiperidine-1-carbonyl)-3-methylphenylamino)-4-oxo-4,5-dihydropyrazolo[4,3-c]pyridin-1-yl)-1-(4-(trifluoromethyl)pyridin-2-yl)piperidin-4-yl)acetonitrile], the concentration for half-maximal inhibition (IC50) in experiment [1] and in experiment [2] was 2010 pM in each case.

As for `CC(C)(C)OC(=O)[C@@H]1CC[C@@](CC#N)(n2nc(Nc3ccc(C(O)C(F)(F)F)cc3)c3c(=O)[nH]ccc32)CO1` (single isomer, unassigned) [Example 5-169, (2S,5S)-tert-butyl 5-(cyanomethyl)-5-(4-oxo-3-((4-((S or R)-2,2,2-trifluoro-1-hydroxyethyl)phenyl)amino)-4,5-dihydro-1H-pyrazolo [4,3-c]pyridin-1-yl)tetrahydro-2H-pyran-2-carboxylate], the IC50 (as a rule, the concentration at which inhibition is half-maximal) in experiment [1] worked out at 410 pM; in experiment [2], 100 pM.

With `CC1CN(S(=O)(=O)c2ccc(Nc3nn([C@]4(CC#N)CCCOC4)c4cc[nH]c(=O)c34)cc2)C1` [Example 5-106, {(3S)-3-[3-({4-[(3-methylazetidin-1-yl)sulfonyl]phenyl}amino)-4-oxo-4,5-dihydro-1H-pyrazolo[4,3-c]pyridin-1-yl]tetrahydro-2H-pyran-3-yl}acetonitrile], the half-maximal inhibitory concentration (IC50) is 990 pM in experiment [1] and 390 pM in experiment [2].

As for `CC(C)(C)OC(=O)N1CCC(CC#N)(n2nc(Nc3cc(Cn4ccnn4)cc(Cn4ccnn4)c3)c3c(=O)[nH]ccc32)CC1` [Example 5-62, tert-butyl 4-(3-(3,5-bis((1H-1,2,3-triazol-1-yl)methyl)phenylamino)-4-oxo-4,5-dihydropyrazolo[4,3-c]pyridin-1-yl)-4-(cyanomethyl)piperidine-1-carboxylate], the IC50 is 320 pM in experiment [1] and 310 pM in experiment [2].

On to `N#CC[C@@]1(n2nc(Nc3ccc(C(N)C(F)(F)F)cc3)c3c(=O)[nH]ccc32)CCCOC1` (single isomer, unassigned) [Example 5-188, {(3S)-3-[3-({4-[(1S or 1R)-1-amino-2,2,2-trifluoroethyl]phenyl}amino)-4-oxo-4,5-dihydro-1H-pyrazolo[4,3-c]pyridin-1-yl]tetrahydro-2H-pyran-3-yl}acetonitrile], for which the IC50 in experiment [1] was determined as 340 pM; in experiment [2] it was 110 pM.

Take `Cc1cc(Nc2nn([C@]3(CC#N)CC[C@@H](C(=O)OC(C)(C)C)OC3)c3cc[nH]c(=O)c23)ccc1C(=O)N1CCOCC1C` (single isomer, unassigned) [Example 20-9, (2S,5S)-tert-butyl 5-(cyanomethyl)-5-(3-((3-methyl-4-((S or R)-3-methylmorpholine-4-carbonyl)phenyl)amino)-4-oxo-4,5-dihydro-1H-pyrazolo[4,3-c]pyridin-1-yl)tetrahydro-2H-pyran-2-carboxylate]: the IC50 is 170 pM in experiment [1] and 140 pM in experiment [2].

In the case of `CN(C)S(=O)(=O)c1ccc(Nc2nn(C3(CC#N)CCN(Cc4ncco4)CC3)c3cc[nH]c(=O)c23)cc1` [Example 8-12, 4-({1-[4-(cyanomethyl)-1-(1,3-oxazol-2-ylmethyl)piperidin-4-yl]-4-oxo-4,5-dihydro-1H-pyrazolo[4,3-c]pyridin-3-yl}amino)-N,N-dimethylbenzenesulfonamide], the values for the concentration for half-maximal inhibition (IC50) in experiment [1] and in experiment [2] were 990 pM and 260 pM, respectively.

On to `COC1CN([C@H]2CC[C@](CC#N)(n3nc(Nc4ccc(Cl)cc4)c4c(=O)[nH]ccc43)CC2)C1` [Example 18-8, Trans 2-(1-(3-((4-chlorophenyl)amino)-4-oxo-4,5-dihydro-1H-pyrazolo[4,3-c]pyridin-1-yl)-4-(3-methoxyazetidin-1-yl)cyclohexyl)acetonitrile], for which the concentration for half-maximal inhibition (IC50) in experiment [1] came to 2530 pM; in experiment [2] it was 30 pM.
